In PubChem BioAssay AID2060325 (Molecular Pharmacology Branch, DTP, NCI, 2025):
“And” between values parts separate entries of the source, which are not always exact repeats. Identical values can stand only once.

Test system: SK-OV-3 multi-cell spheroids, viability
Experiment: Anticancer human tumor SK-OV-3 cell line growth inhibition [IpAb];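 on viability, T/C: viability read after seven days of drug exposure; percent of DMSO vehicle control luminescence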
Settings: for viability, T/C: stronger effect = lower value
Text: Combinatorial screen of targeted agents with ipatasertib and abemaciclib in multi-cell type tumor spheroids
A high-throughput screen of multi-cell type tumor spheroids was designed to identify active combinations of targeted small molecules and ipatasertib or abemaciclib. Complex spheroids include a stromal component modeled by human endothelial cells (HUVEC) and fibroblasts modeled by human mesenchymal stem cells (MSCs). The concentration ranges selected for each drug and investigational agent were based upon clinically achievable concentrations if the clinical Cmax of the agent was known.
Compounds. The drugs and investigational agents: ipatasertib (NSC767898), abemaciclib(NSC768073), selumetinib (NSC741078), trametinib (758246), adavosertib (NSC754352), everolimus (NSC733504), sapanisertib (NSC764658), vemurafenib (NSC761431), venetoclax (NSC766270), copanlisib (NSC809693), apelisib (NSC765974), palbociblib (NSC758247), vemurafenib (NSC761431), dabrafenib (NSC764134), ravoxertinib (NSC781343), BMS-387032 (NSC767048), sotorasib (NSC818433), talazoparib (NSC767125) and afursertib (NSC778305), were obtained from the National Cancer Institute (NCI) Developmental Therapeutics Program Chemical Repository. The FDA-approved anticancer drug set is available from the NCI Developmental Therapeutics Program. […] The stock solutions were prepared in dimethyl sulfoxide (DMSO, Sigma-Aldrich, St. Louis, MO, cat. D2650) at 800-fold the tested concentration and stored at -70 degrees C prior to their use. All drugs and investigational agents were tested over a range starting from a high concentration at or near the clinical Cmax and decreasing in half-log increments. If the clinical Cmax for an agent had not been determined, the highest concentration tested was 10 microM.
NCI60 Cell Culture. NCI60 cell lines were obtained from the NCI Developmental Therapeutics Program Tumor Repository. For each lot of cells, the Repository performed Applied Biosystems AmpFLSTR Identifiler testing with PCR amplification to confirm consistency with the published Identifier STR profile for each cell line. Cells were kept in continuous culture for no more than 20 passages. The optimal seeding densities for each of the cell lines at each time point assessed were determined prior to performing the concentration response studies. Briefly, the NCI60 human tumor lines were grown as monolayers in RPMI 1640 medium supplemented with 10% FBS and 2 mmol/L L-glutamine.
An additional 9 lines were from the NCI60 cell line panel including MDA-MB-231 breast carcinoma, MDA-MB-468 breast carcinoma, MCF7 breast carcinoma, Hs578T breast carcinoma, MALME-3M melanoma, SK-MEL-2 melanoma, SK-OV-3 ovarian carcinoma, DU-145 prostate carcinoma, PC-3 prostate carcinoma, all cell lines along with major genetic alterations are listed on Table 2. Pooled donor human umbilical vein endothelial cells (HUVEC, Lonza, cat. CC-2519) and human mesenchymal stem cells (hMSC, Lonza, cat. PT-2501) were purchased from Lonza (Walkersville, MD).
PDMR cell lines were grown in complete medium (DC medium): Dulbecco's modified Eagle's medium (DMEM)/F12 supplemented with 5% fetal bovine serum (FBS), 2 mM L-glutamine, 100 U/mL penicillin and 100 µg/ml streptomycin, 0.4 µg/ml hydrocortisone, 10 ng/ml epidermal growth factor (EGF) recombinant human protein, 24 µg/mL adenine, and 0.1 mg/mL primocin. During culture from frozen stock vials, PDMR cells were cultured in the same medium containing 10 µM Y-27632 (see Table 3). The PDCs were cultured in complete DMEM/F12 media without 10 microM Y-27632 dihydrochloride for at least two passages prior to the screen. The pooled donor HUVEC and hMSC were cultured in endothelial cell growth medium 2 (PromoCell, Heidelberg, Germany, cat. C-22011) and mesenchymal stem cell growth medium 2 (PromoCell, cat. C-28009), respectively. For all experiments, HUVEC and hMSC were used at passages </=5.
[…]

[1] = curve of first compound, second compound 0.1 µM
[2] = curve of first compound, second compound 0.316 µM
[3] = curve of first compound, second compound 1 µM
[4] = second compound 0.1 µM, first compound 0.0316 µM
[5] = second compound 0.1 µM, first compound 0.1 µM
[6] = second compound 0.1 µM, first compound 0.316 µM
[7] = second compound 0.1 µM, first compound 1 µM
[8] = second compound 0.316 µM, first compound 0.0316 µM
[9] = second compound 0.316 µM, first compound 0.1 µM
[10] = second compound 0.316 µM, first compound 0.316 µM
[11] = second compound 0.316 µM, first compound 1 µM
[12] = second compound 1 µM, first compound 0.0316 µM
[13] = second compound 1 µM, first compound 0.1 µM
[14] = second compound 1 µM, first compound 0.316 µM
[15] = second compound 1 µM, first compound 1 µM

Compound: COc1c(OCCCN2CCOCC2)ccc2c3n(c(=NC(=O)c4cnc(N)nc4)nc12)CCN3 + CCN1CCN(Cc2ccc(Nc3ncc(F)c(-c4cc(F)c5nc(C)n(C(C)C)c5c4)n3)nc2)CC1
- IC50 (curve of first compound, second compound 0.01 µM): 6.39 nM
- IC50 (curve of first compound, second compound 0.0316 µM): 4.18 nM
- IC50 [1]: < 3.16 nM
- IC50 [2]: < 3.16 nM
- IC50 [3]: < 3.16 nM
- viability, T/C (second compound 0.01 µM, first compound 0.00316 µM): 68%
- viability, T/C (second compound 0.01 µM, first compound 0.01 µM): 38.6%
- viability, T/C (second compound 0.01 µM, first compound 0.0316 µM): 12.6%
- viability, T/C (second compound 0.01 µM, first compound 0.1 µM): 7.16%
- viability, T/C (second compound 0.01 µM, first compound 0.316 µM): 5.33%
- viability, T/C (second compound 0.01 µM, first compound 1 µM): 3.04%
- viability, T/C (second compound 0.0316 µM, first compound 0.00316 µM): 56.2%
- viability, T/C (second compound 0.0316 µM, first compound 0.01 µM): 30.5%
- viability, T/C (second compound 0.0316 µM, first compound 0.0316 µM): 9.9%
- viability, T/C (second compound 0.0316 µM, first compound 0.1 µM): 6.3%
- viability, T/C (second compound 0.0316 µM, first compound 0.316 µM): 5%
- viability, T/C (second compound 0.0316 µM, first compound 1 µM): 2.92%
- viability, T/C (second compound 0.1 µM, first compound 0.00316 µM): 43%
- viability, T/C (second compound 0.1 µM, first compound 0.01 µM): 23.7%
- viability, T/C [4]: 10.4%
- viability, T/C [5]: 5.9%
- viability, T/C [6]: 5.13%
- viability, T/C [7]: 2.59%
- viability, T/C (second compound 0.316 µM, first compound 0.00316 µM): 42.1%
- viability, T/C (second compound 0.316 µM, first compound 0.01 µM): 22.4%
- viability, T/C [8]: 9.73%
- viability, T/C [9]: 6.47%
- viability, T/C [10]: 5.55%
- viability, T/C [11]: 3.33%
- viability, T/C (second compound 1 µM, first compound 0.00316 µM): 40.2%
- viability, T/C (second compound 1 µM, first compound 0.01 µM): 23.2%
- viability, T/C [12]: 10.2%
- viability, T/C [13]: 6.83%
- viability, T/C [14]: 5.51%
- viability, T/C [15]: 4.14%

Compound: Cc1nc(NC(=O)N2CCCC2C(N)=O)sc1-c1ccnc(C(C)(C)C(F)(F)F)c1 (configuration not stated)
- viability, T/C (compound 0.0316 µM): 91.9% and 91.3%
- viability, T/C (compound 0.1 µM): 78.5% and 80.2%
- viability, T/C (compound 0.316 µM): 47.3% and 49%
- viability, T/C (compound 1 µM): 20.7% and 26.9%
- viability, T/C (compound 3.16 µM): 10.9% and 10.7%
- viability, T/C (compound 10 µM): 5.21% and 4.93%
- IC50 (curve of compound): 291 nM and 337 nM

Compound: CC1(C)CCC(CN2CCN(c3ccc(C(=O)NS(=O)(=O)c4ccc(NCC5CCOCC5)c([N+](=O)[O-])c4)c(Oc4cnc5[nH]ccc5c4)c3)CC2)=C(c2ccc(Cl)cc2)C1 + CC(C)NCC(C(=O)N1CCN(c2ncnc3c2C(C)CC3O)CC1)c1ccc(Cl)cc1
- IC50 [1]: 3200 nM
- IC50 [2]: < 31.6 nM
- IC50 [3]: < 31.6 nM
- IC50 (curve of first compound, second compound 3.16 µM): < 31.6 nM
- IC50 (curve of first compound, second compound 10 µM): < 31.6 nM
- viability, T/C [4]: 64.3%
- viability, T/C [5]: 70.6%
- viability, T/C [6]: 68%
- viability, T/C [7]: 58.6%
- viability, T/C (second compound 0.1 µM, first compound 3.16 µM): 51.2%
- viability, T/C (second compound 0.1 µM, first compound 10 µM): 26.1%
- viability, T/C [8]: 33.6%
- viability, T/C [9]: 38.2%
- viability, T/C [10]: 31.7%
- viability, T/C [11]: 31.6%
- viability, T/C (second compound 0.316 µM, first compound 3.16 µM): 28%
- viability, T/C (second compound 0.316 µM, first compound 10 µM): 18.6%
- viability, T/C [12]: 21.1%
- viability, T/C [13]: 27.3%
- viability, T/C [14]: 21.6%
- viability, T/C [15]: 18.9%
- viability, T/C (second compound 1 µM, first compound 3.16 µM): 17%
- viability, T/C (second compound 1 µM, first compound 10 µM): 13.7%
- viability, T/C (second compound 3.16 µM, first compound 0.0316 µM): 15.5%
- viability, T/C (second compound 3.16 µM, first compound 0.1 µM): 15.3%
- viability, T/C (second compound 3.16 µM, first compound 0.316 µM): 14.2%
- viability, T/C (second compound 3.16 µM, first compound 1 µM): 13.9%
- viability, T/C (second compound 3.16 µM, first compound 3.16 µM): 11.1%
- viability, T/C (second compound 3.16 µM, first compound 10 µM): 7.06%
- viability, T/C (second compound 10 µM, first compound 0.0316 µM): 7.25%
- viability, T/C (second compound 10 µM, first compound 0.1 µM): 9.06%
- viability, T/C (second compound 10 µM, first compound 0.316 µM): 8.25%
- viability, T/C (second compound 10 µM, first compound 1 µM): 6.89%
- viability, T/C (second compound 10 µM, first compound 3.16 µM): 5.18%
- viability, T/C (second compound 10 µM, first compound 10 µM): 4.58%
